Paper PMC11651181, “Discovery of 6α-Thiazolylcarboxamidonaltrexamine Derivative (NTZ) as a Potent and Central Nervous System Penetrant Opioid Receptor Modulator with Drug-like Properties for Potential Treatment of Opioid Use Disorder” (ACS Pharmacology & Translational Science, 2024)
“Also recorded” adds a separate entry of the source. Where a name gives a salt, the structure may show the parent alone. Read-outs that look alike come from different tables or passages of the source.

Assays:
[1] = molecular target: T1, δ opioid receptor (DOR) (Homo sapiens, UniProt P41143); experiment: Competitive radioligand binding assay, DOR
T1 construct: expressed in transfected cells; host or cells: CHO (hDOR-CHO), membrane preparation
Protocol: (§1) The competition binding assay was performed using monoclonal mouse opioid receptors expressed in CHO cell lines (monoclonal human δ opioid receptor was used for the DOR assay).
(§2) The bound radioligand was separated using a Brandel harvester. Specific binding to the MOR, KOR, and DOR was calculated by subtracting the binding observed in the presence of 5 μM naltrexone, U50488, and SNC80, respectively, from the binding in their absence. Relative affinity values (IC50) were determined by fitting displacement binding inhibition data to a nonlinear regression model using GraphPad Prism 8.0 (GraphPad Software, San Diego, CA). The % inhibition was calculated using the formula: % inhibition = 100% - [(binding with the tested compound - nonspecific binding)/specific binding] × 100%. The IC50 values were converted to Ki values using the Cheng-Prusoff equation: Ki = IC50/ [1 + ([L*]/KD)], where [L*] is the concentration of the radioligand and KD is the KD of the radioligand.[68]

[2] = molecular target: T2, μ opioid receptor (MOR) (Mus musculus, UniProt P42866); experiment: Competitive radioligand binding assay, MOR
T2 construct: expressed in transfected cells; host or cells: CHO (mMOR-CHO), membrane preparation
Protocol: as §1, §2

[3] = molecular target: T3, κ opioid receptor (KOR) (Mus musculus, UniProt P33534); experiment: Competitive radioligand binding assay, KOR; conditions: for Selectivity κ/μ: ratio of Ki values
T3 construct: expressed in transfected cells; host or cells: CHO (mKOR-CHO), membrane preparation
Protocol: as §1, §2

[4] = molecular target: T4, MOR (Mus musculus, UniProt P42866); experiment: MOR [35S]GTPγS functional assay; assay type: biochemical; conditions: for Emax: read-out: MOR [35S]GTPγS Binding %Emax of DAMGO, relative to 3 μM DAMGO, mean ± SEM
T4 construct: expressed in transfected cells; host or cells: CHO (MOR-CHO), membrane preparation
Protocol: (§3) The [^35S]GTPγS functional assay was used to assess the efficacy of compounds at the MOR, KOR, and DOR. In this assay, 10 μg of MOR-CHO/KOR-CHO/DOR-CHO membrane protein was incubated in 500 μL of TME with 100 mM NaCl, 20 μM GDP, 0.1 nM [^35S]GTPγS, and varying concentrations of the compound for 1.5 h in a 30 °C water bath. Protein concentration was adjusted using the Bradford protein assay. […] After incubation, bound radioactivity was separated by filtration through GF/B glass fiber filters and measured by liquid scintillation counting. All assays were performed in duplicate and repeated at least three times. Net stimulated [35S]GTPγS binding was calculated as agonist-stimulated minus basal binding.

[5] = test system: Swiss Webster mice; experiment: Warm-water tail immersion assay, agonism (acute antinociception); conditions: single dose of 10 mg/kg s.c., n = 6, vs 10 mg/kg morphine
[6] = test system: Swiss Webster mice; experiment: Warm-water tail immersion assay, antagonism of morphine-induced antinociception
[7] = test system: morphine-pelleted mice; experiment: In vivo opioid withdrawal studies in morphine-pelleted mice; parameters: species or system mouse; conditions: for Jumps, mean count / Paw tremors, mean count / Wet dog shake, mean count: 5 mg/kg s.c., counted over 20 min; for Precipitated withdrawal symptoms, in words: s.c.
Protocol: Swiss Webster mice (six males per group, weighing 25–35 g and aged 6–8 weeks) were used. Following a previously established protocol,[20] a 75 mg morphine pellet was implanted subcutaneously into the back of each mouse, and they were allowed to recover in their home cages. Prior to testing, the mice were habituated for 30 min in an open-topped, clear Plexiglas observation chamber (26 × 26 × 26 cm^3) with lines marking the floor into quadrants. […]. Withdrawal symptoms began within 3 min of antagonist administration. Escape jumps, paw tremors, and wet dog shakes were recorded by counting their occurrences over a 20 min period for each mouse. Results are expressed as the mean ± SEM.

[8] = molecular target: T5, DOR (Homo sapiens, UniProt P41143); experiment: DOR [35S]GTPγS functional assay; assay type: biochemical
T5 construct: expressed in transfected cells; host or cells: CHO (DOR-CHO), membrane preparation
Protocol: as §3

[9] = molecular target: T4, MOR; experiment: MOR calcium flux assay in Gαqi5-transfected mMOR-CHO cells; assay type: cell-based
[10] = molecular target: T6, KOR (Mus musculus, UniProt P33534); experiment: KOR [35S]GTPγS functional assay; assay type: biochemical
T6 construct: expressed in transfected cells; host or cells: CHO (KOR-CHO), membrane preparation
Protocol: as §3

[11] = test system: GI-tract motility; parameters: method as in PMID 22683223; conditions: cited from earlier work
[12] = test system: Swiss Webster mice; parameters: method as in PMID 35255685; conditions: warm-water tail immersion; cited from earlier work
[13] = test system: Swiss Webster mice; conditions: cited from earlier work; for %MPE in single dose antagonism assay: in the presence of morphine; for AD50 (95% CL) for counteracting morphine-induced antinociception: mice

Row | SMILES | Ki [1] [nM] | Ki [2] [nM] | Ki [3] [nM] | Selectivity κ/μ [3] | EC50 [4] [nM] | Emax [4] [%] | Jumps, mean count [7] | Paw tremors, mean count [7] | Wet dog shake, mean count [7] | Precipitated withdrawal symptoms, in words [7] | IC50 [9] [nM] | %MPE in single dose antagonism assay [13] [%] | AD50 (95% CL) for counteracting morphine-induced antinociception [13] | also measured
1 | O=C(N[C@H]1CC[C@@]2(O)[C@H]3Cc4ccc(O)c5c4[C@@]2(CCN3CC2CC2)[C@H]1O5)c1ccns1 [Compound 1, 17-Cyclopropylmethyl-3,14β-dihydroxy-4,5α-epoxy-6α-(5′-isothiazolylcarboxamido)-morphinan hydrochloride] | 14.3 ± 0.66 | 0.51 ± 0.08 | 1.81 ± 0.18 | 4 | 4.93 ± 0.8 | 15.6 ± 1.11 |  |  |  |  |  |  |  | Selectivity δ/μ ([1]; ratio of Ki values): 28; Antinociceptive effect (MPE) compared to morphine, in words [5]: significantly lower than that of morphine
2 | O=C(N[C@@H]1CC[C@@]2(O)[C@H]3Cc4ccc(O)c5c4[C@@]2(CCN3CC2CC2)[C@H]1O5)c1nccs1 [Compound 14, 17-Cyclopropylmethyl-3,14β-dihydroxy-4,5α-epoxy-6β-(2′-thiazolylcarboxamido)-morphinan hydrochloride] | 117 ± 23.6 | 0.3 ± 0.04 | 0.75 ± 0.08 | 2 | 0.56 ± 0.2 | 6.06 ± 0.52 | 58.8 | 45.7 | 17.7 | fewer wet dog shakes and paw tremors at all testing doses than 1 mg/kg NLX | 12.4 ± 1.18 |  |  | AD50 (95% CL) for counteracting morphine-induced antinociception ([6]; mice, s.c., given 5 min before morphine): 0.23 (0.04–1.37) mg/kg; Antagonism of morphine's antinociception, in words ([6]; single dose of 10 mg/kg s.c. in the presence of morphine (10 mg/kg), n = 6): significantly antagonized; EC50 [8]: 44 ± 6.82 nM; Emax ([8]; relative to 3 μM SNC80, mean ± SEM, read-out: DOR [35S]GTPγS binding % Emax of SNC80): 25.9 ± 0.4%; Agonistic activity in increasing intracellular calcium, in words ([9]; compared to full MOR agonist DAMGO): no apparent agonism; also recorded: none of them showed any significant agonistic activity; EC50 [10]: 9.67 ± 1.81 nM; Emax ([10]; relative to 3 μM U50488H, mean ± SEM, read-out: KOR [35S]GTPγS binding % Emax of U50488H): 39.8 ± 2.82%
3 | O=C(N[C@@H]1CC[C@@]2(O)[C@H]3Cc4ccc(O)c5c4[C@@]2(CCN3CC2CC2)[C@H]1O5)c1ccncc1 [NAP, 17-Cyclopropylmethyl-3,14β-Dihydroxy-4,5α-Epoxy-6β-[(4′-Pyridyl)Carboxamido]Morphinan] |  |  |  |  |  |  |  |  |  |  |  |  |  | ED50 in gastrointestinal (GI)-tract motility assay [11]: 8.8 µg/kg
4 | O=C(N[C@H]1CC[C@@]2(O)[C@H]3Cc4ccc(O)c5c4[C@@]2(CCN3CC2CC2)[C@H]1O5)c1cccs1 [NAT, reference compound] |  |  |  |  |  |  | 45.8 | 29.2 | 14.5 | Significant withdrawal symptoms | 42.1 ± 4.51 | 2.1 ± 1.7 | 0.42 (0.21–0.82) mg/kg | %MPE in single dose agonism assay [12]: 15.2 ± 8.8%
5 | C=CCN1CC[C@]23c4c5ccc(O)c4O[C@H]2C(=O)CC[C@@]3(O)[C@H]1C5 [NLX, naloxone] |  |  |  |  |  |  |  |  |  | precipitated significant withdrawal symptoms |  | 2.9 ± 1.3 | 0.05 (0.03–0.09) mg/kg | 
